Source: patent US6599715B1, “Real time viability detection of bacterial spores” (priority 1999, dated 2003)

System: Bacillus globigii spores
Format: cell-based
Conditions: relative germination; phase change monitored at 450 nm over 10 minutes; 3.6×10^8 spores per ml in 20 mM potassium phosphate buffer (pH 7.4)
Protocol: Bacillus cultures were grown at 30° C. with moderate aeration for 7 days. Spores were harvested by centrifugation at 10,900×g for 30 minutes at 4° C. and resuspended in 200 milliliters (ml) of sterile distilled water and washed 7 to 10 times, heated to 65° C. for 15 minutes to kill any vegetative cells, and stored at 4° C. Spore populations were determined from the average of 3 serial dilution plates.
B. globigii spores (500 microliters (μl)) were diluted to a concentration of 3.6×10^8 spores per ml in 20 millimolar (mM) potassium phosphate buffer (pH 7.4), and mixed with 500 μl of a 0.12 M solution of one or more of L-alanine, L-asparagine and D-glucose, together with DPA and other chemicals to test the effectiveness of various combinations as germinating agents. The phase change of the spores in the germinants was monitored at 450 nm over a period of 10 minutes.

Compound	Percent germination [%]
NC(=O)C[C@H](N)C(=O)O [20 mM L-asparagine, L-asparagine]	5.2
O=C[C@H](O)[C@@H](O)[C@H](O)[C@H](O)CO [20 mM D-glucose, D-glucose]	7.0
O=C(O)c1cccc(C(=O)O)n1 [20 mM DPA, pyridine-2,6-dicarboxylic acid]	7.3
C[C@H](N)C(=O)O [20 mM L-alanine, L-alanine]	50.1
